Assay results reported in US20070191291A1, “Compound antibacterial drugs comprising n-acetyl-d-glucosamine” (priority 2003, published 2007).
Like-named read-outs stand apart in the source and are kept apart here.

Legend:
Bacillus proteus = assay: Test Example 2: preventing formation of bacterial CGC in vitro (K-B method); type: cell-based
Procedure: (§1) E. coli (No. 33310, purchased from Chengdu Institute of Biological Products, the Ministry of Public Health) was used in the tests. Grid design was performed by using antibiotic with different concentrations and N-acetyl-D-glucosamine having an amount of from 10 mg to 300 mg. Streak plates were conducted separately, and K-B method was employed for drugs. Colonies at marginal part of drug inhibition zone were picked and were observed under microscope. If cell length was more than 50 μm and cell number was more than 5 in each visual field, it was deemed as CGC positive and was marked with “+”; while if cell length was not greater than 50 μm and cell number was within the range from 0 to 4 in each visual field, it was deemed as CGC negative and was marked with “−”. At this time, the ratio of two substances was called “effective ratio”.
(§2) Effects tests of compound preparation comprising N-acetyl-D-glucosamine and antibiotics for preventing the formation of bacterial CGC in vitro.
(§3) The tests were carried out in vitro, wherein gram-negative amphimicrodes, gram-negative anaerobes and gram-positive aerobes were separately coated on streak plates, test drugs and control drugs were separately dissolved with same volume of sterile water for injection, 10 μl of each drug was used for preparing drug-sensitive paper, K-B method was employed in the tests of drugs, and the inhibition situations of CGC formation were observed.

Nucleic Acid Bacter = assay: as above; type: cell-based
Procedure: as §1, §2, §3

Listeria = assay: as above; type: cell-based
Procedure: as §1, §2, §3

Klebsiella = assay: as above; type: cell-based
Procedure: as §1, §2, §3

E. coli = assay: as above; type: cell-based
Procedure: as §1, §2, §3

Diphtheroid bacillus = assay: as above; type: cell-based
Procedure: as §1, §2, §3

Bacillus cereus = assay: as above; type: cell-based
Procedure: as §1, §2, §3

Bacteroides fragilis = assay: as above; type: cell-based
Procedure: as §1, §2, §3

Citro Bacter = assay: as above; type: cell-based
Procedure: as §1, §2, §3

[1] = test system: rats infected and not infected by Bacillus typhi murium; type: in vivo, Wistar rats; conditions: rats infected or not by Bacillus typhi murium, consecutive week, 15 rats per group
[2] = test system: irritable bowel syndrome (IBS) caused by bacterial CGC; assay: Test Example 5: preventing irritable bowel syndrome (IBS) caused by bacterial CGC; type: in vivo, rats; conditions: for CGCs in the rat stools after one week of drug withdrawal / CGCs in the stools of the rats: rats, effective dosage for consecutive 10 days, 30 rats per group; for CGCs in the stools of the rats: stools observed during administration and within 1 week after drug withdrawal
Description: On this basis, the rats were subjected to stimulations such as electric stimulation, intragastric administration with fructus zanthoxyli water, cold, constraint etc. in order to induce IBS, and the incidence rates of IBS of two groups were observed.

[3] = compound preparation 100 mg N-acetyl-D-glucosamine + 900 mg spiramycin, control 900 mg spiramycin
[4] = compound preparation 100 mg N-acetyl-D-glucosamine + 1500 mg ampicillin-sulbactam, control drug was ampicillin-sulbactam
[5] = first of three values given respectively: electric stimulation
[6] = second of three values given respectively: intragastric administration with fructus zanthoxyli water
[7] = third of three values given respectively: cold, constraint etc.
[8] = compound preparation N-acetyl-D-glucosamine (50 mg) and tetracycline (150 mg), control tetracycline (150 mg)

Compound: spiramycin
- CGC formation (Bacillus proteus; [3]): + (If cell length was more than 50 μm and cell number was more than 5 in each visual field, it was deemed as CGC positive and was marked with “+”)
- CGC formation (Bacillus proteus; [4]): + (If cell length was more than 50 μm and cell number was more than 5 in each visual field, it was deemed as CGC positive and was marked with “+”)
- CGC formation (Nucleic Acid Bacter; [3]): + (If cell length was more than 50 μm and cell number was more than 5 in each visual field, it was deemed as CGC positive and was marked with “+”)
- CGC formation (Nucleic Acid Bacter; [4]): + (If cell length was more than 50 μm and cell number was more than 5 in each visual field, it was deemed as CGC positive and was marked with “+”)
- CGC formation (Listeria; [3]): + (If cell length was more than 50 μm and cell number was more than 5 in each visual field, it was deemed as CGC positive and was marked with “+”)
- CGC formation (Listeria; [4]): + (If cell length was more than 50 μm and cell number was more than 5 in each visual field, it was deemed as CGC positive and was marked with “+”)
- CGC formation (Klebsiella; [3]): + (If cell length was more than 50 μm and cell number was more than 5 in each visual field, it was deemed as CGC positive and was marked with “+”)
- CGC formation (Klebsiella; [4]): + (If cell length was more than 50 μm and cell number was more than 5 in each visual field, it was deemed as CGC positive and was marked with “+”)
- CGC formation (E. coli; [3]): + (If cell length was more than 50 μm and cell number was more than 5 in each visual field, it was deemed as CGC positive and was marked with “+”)
- CGC formation (E. coli; [4]): + (If cell length was more than 50 μm and cell number was more than 5 in each visual field, it was deemed as CGC positive and was marked with “+”)
- CGC formation (Diphtheroid bacillus; [3]): + (If cell length was more than 50 μm and cell number was more than 5 in each visual field, it was deemed as CGC positive and was marked with “+”)
- CGC formation (Diphtheroid bacillus; [4]): + (If cell length was more than 50 μm and cell number was more than 5 in each visual field, it was deemed as CGC positive and was marked with “+”)
- CGC formation (Bacillus cereus; [3]): + (If cell length was more than 50 μm and cell number was more than 5 in each visual field, it was deemed as CGC positive and was marked with “+”)
- CGC formation (Bacillus cereus; [4]): + (If cell length was more than 50 μm and cell number was more than 5 in each visual field, it was deemed as CGC positive and was marked with “+”)
- CGC formation (Bacteroides fragilis; [3]): + (If cell length was more than 50 μm and cell number was more than 5 in each visual field, it was deemed as CGC positive and was marked with “+”)
- CGC formation (Bacteroides fragilis; [4]): + (If cell length was more than 50 μm and cell number was more than 5 in each visual field, it was deemed as CGC positive and was marked with “+”)
- CGC formation (Citro Bacter; [3]): + (If cell length was more than 50 μm and cell number was more than 5 in each visual field, it was deemed as CGC positive and was marked with “+”)
- CGC formation (Citro Bacter; [4]): + (If cell length was more than 50 μm and cell number was more than 5 in each visual field, it was deemed as CGC positive and was marked with “+”)
- positive rates of stool CGC and intestinal mucosa CGC ([1]; N-acetyl-D-glucosamine (100 mg)+spiramycin (900 mg) vs only spiramycin): 100%
- incidence rate of IBS [2, 5]: 33%
- CGCs in the rat stools after one week of drug withdrawal [2]: still present
- CGCs in the stools of the rats [2]: a large amount of CGCs appeared
- incidence rate of IBS [2, 6]: 33%
- incidence rate of IBS [2, 7]: 33%

Compound: CN(C)C1C(O)=C(C(N)=O)C(=O)C2(O)C(O)=C3C(=O)c4c(O)cccc4C(C)(O)C3CC12 (stereo not drawn) [Tetracyclin, tetracycline]
- CGC formation (Bacillus proteus; [8]): + (If cell length was more than 50 μm and cell number was more than 5 in each visual field, it was deemed as CGC positive and was marked with “+”)
- CGC formation (Nucleic Acid Bacter; [8]): + (If cell length was more than 50 μm and cell number was more than 5 in each visual field, it was deemed as CGC positive and was marked with “+”)
- CGC formation (Listeria; [8]): + (If cell length was more than 50 μm and cell number was more than 5 in each visual field, it was deemed as CGC positive and was marked with “+”)
- CGC formation (Klebsiella; [8]): + (If cell length was more than 50 μm and cell number was more than 5 in each visual field, it was deemed as CGC positive and was marked with “+”)
- CGC formation (E. coli; [8]): + (If cell length was more than 50 μm and cell number was more than 5 in each visual field, it was deemed as CGC positive and was marked with “+”)
- CGC formation (Diphtheroid bacillus; [8]): + (If cell length was more than 50 μm and cell number was more than 5 in each visual field, it was deemed as CGC positive and was marked with “+”)
- CGC formation (Bacillus cereus; [8]): + (If cell length was more than 50 μm and cell number was more than 5 in each visual field, it was deemed as CGC positive and was marked with “+”)
- CGC formation (Bacteroides fragilis; [8]): + (If cell length was more than 50 μm and cell number was more than 5 in each visual field, it was deemed as CGC positive and was marked with “+”)
- CGC formation (Citro Bacter; [8]): + (If cell length was more than 50 μm and cell number was more than 5 in each visual field, it was deemed as CGC positive and was marked with “+”)
- positive rates of stool CGC and intestinal mucosa CGC ([1]; N-acetyl-D-glucosamine (150 mg)+tetracycline (150 mg) vs only tetracycline): 100%
- incidence rate of IBS [2, 5]: 33%
- CGCs in the rat stools after one week of drug withdrawal [2]: still present
- CGCs in the stools of the rats [2]: a large amount of CGCs appeared
- incidence rate of IBS [2, 6]: 33%
- incidence rate of IBS [2, 7]: 33%
